Data on 19 compounds can be found in ChEMBL document CHEMBL4138122, “Azaphenothiazines - promising phenothiazine derivatives. An insight into nomenclature, synthesis, structure elucidation and biological properties” (Eur J Med Chem, 2017).

For data set [1], the system named is Staphylococcus aureus. The experiment in a line: Antibacterial activity against methicillin-resistant Staphylococcus aureus. Type of data set: functional.
A further data set has as its system Escherichia coli. The experiment in a line: Antibacterial activity against Escherichia coli. The class given is functional. To be noted: Escherichia coli.
Another data set deals with Bacillus cereus. The experiment in a line: Antibacterial activity against Bacillus cereus. The class given is functional, organism-based.
A further data set has as its system Aspergillus niger. Description: Antifungal activity against Aspergillus niger. The class given is functional.
Data set [2] can be described thus: Inhibition of LTB4 formation in rat polymorphonuclear leukocytes preincubated for 2 mins followed by A-23187 addition after 4 mins. The class given is functional, cell-based.
Data set [3] relates to Rattus norvegicus. The experiment in a line: Anti-asthmatic activity in rat assessed as inhibition of egg albumin-induced duration of symptoms of dyspnoea at 3 mg/kg, po administered 90 mins prior to dyspnoea induction. The class given is functional.
Data set [4] concerns Rattus norvegicus. Description: Anti-asthmatic activity in rat assessed as inhibition of egg albumin-induced duration of symptoms of dyspnoea at 5 mg/kg, po administered 90 mins prior to dyspnoea induction. Type of data set: functional.
Another data set deals with Salmonella typhimurium. The experiment in a line: Antibacterial activity against Salmonella typhimurium. The class given is functional, Salmonella enterica subsp. enterica serovar Typhimurium. The note with it: Salmonella enterica.
Data set [5] is described as follows: Antioxidant activity assessed as DPPH radical scavenging activity. The class given is functional. To be noted: dose or concentration not given here.
Data set [6] is filed under the species Mus musculus. The experiment in a line: Antioxidant activity in Swiss albino mouse assessed as GSH level per mg tissue. Type of data set: functional.
For data set [7], the species on record is Mus musculus. The experiment in a line: Antioxidant activity in Swiss albino mouse assessed as LPO level per mg tissue. Type of data set: functional.
Data set [8] has as its system Mus musculus. The experiment in a line: Anti-inflammatory activity in IL1-induced paw inflammation Balb/c mouse model assessed as inhibition of neutrophil migration at 10 mg/kg, po, pretreated for 30 mins followed by IL1 challenge measured after 2 hrs by spectrophotometric method. Type of data set: functional.
Data set [9] concerns HUVEC. Description: Anti-inflammatory activity in human HUVEC cells assessed as reduction in TNFalpha-induced VCAM expression after 4 hrs by ELISA. The class given is functional, cell-based. In general terms: In an ELISA, binding on a coated surface is turned into a signal by an enzyme label.
For data set [10], the system named is HUVEC. The experiment in a line: Anti-inflammatory activity in human HUVEC cells assessed as reduction in TNFalpha-induced E-selectin expression after 4 hrs by ELISA. Type of data set: functional, cell-based.
In data set [11] the target is Intercellular adhesion molecule 1 (Homo sapiens, UniProt P05362). The experiment in a line: Inhibition of ICAM1 (unknown origin).
Chain of Intercellular adhesion molecule 1 (P05362 whole entry): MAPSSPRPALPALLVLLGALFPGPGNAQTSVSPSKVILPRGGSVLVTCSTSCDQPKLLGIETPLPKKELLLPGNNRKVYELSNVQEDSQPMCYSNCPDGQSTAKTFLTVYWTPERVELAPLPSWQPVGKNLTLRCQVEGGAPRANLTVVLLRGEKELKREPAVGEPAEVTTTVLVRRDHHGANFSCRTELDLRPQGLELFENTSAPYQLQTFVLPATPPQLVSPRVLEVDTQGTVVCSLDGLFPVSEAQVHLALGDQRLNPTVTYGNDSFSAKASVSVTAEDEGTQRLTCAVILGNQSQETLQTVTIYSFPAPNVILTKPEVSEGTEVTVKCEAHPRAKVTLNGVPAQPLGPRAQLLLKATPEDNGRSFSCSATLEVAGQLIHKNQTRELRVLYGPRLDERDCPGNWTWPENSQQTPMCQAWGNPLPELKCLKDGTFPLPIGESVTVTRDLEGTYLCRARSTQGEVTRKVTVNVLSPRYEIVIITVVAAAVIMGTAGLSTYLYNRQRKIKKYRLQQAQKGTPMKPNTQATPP
For data set [12], the target named is Vascular cell adhesion protein 1 (Homo sapiens, UniProt P19320). The experiment in a line: Inhibition of VCAM1 (unknown origin).
Chain of Vascular cell adhesion protein 1 (P19320 whole entry): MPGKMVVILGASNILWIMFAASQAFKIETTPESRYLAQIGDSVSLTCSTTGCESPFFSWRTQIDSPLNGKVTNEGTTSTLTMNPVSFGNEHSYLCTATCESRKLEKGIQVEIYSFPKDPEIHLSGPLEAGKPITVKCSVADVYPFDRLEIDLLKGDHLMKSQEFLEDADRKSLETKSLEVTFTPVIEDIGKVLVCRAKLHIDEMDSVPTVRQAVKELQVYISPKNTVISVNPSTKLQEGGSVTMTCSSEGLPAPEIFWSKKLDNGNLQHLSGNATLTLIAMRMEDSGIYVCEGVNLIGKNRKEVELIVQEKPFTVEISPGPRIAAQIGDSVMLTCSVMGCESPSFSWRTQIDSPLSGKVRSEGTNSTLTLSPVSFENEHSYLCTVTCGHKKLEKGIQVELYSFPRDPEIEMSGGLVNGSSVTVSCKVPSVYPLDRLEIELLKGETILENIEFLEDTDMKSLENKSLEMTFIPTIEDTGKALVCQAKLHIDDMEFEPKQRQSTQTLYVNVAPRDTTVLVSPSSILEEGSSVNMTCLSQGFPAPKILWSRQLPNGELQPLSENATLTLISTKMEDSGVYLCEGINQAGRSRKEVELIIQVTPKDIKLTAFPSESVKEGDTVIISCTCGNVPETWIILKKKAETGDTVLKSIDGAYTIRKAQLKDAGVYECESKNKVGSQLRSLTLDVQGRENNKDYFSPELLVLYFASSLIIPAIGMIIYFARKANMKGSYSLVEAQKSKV
Data set [13] can be described thus: Inhibition of lipoxygenase in rat peritoneal cavity resident cells.
A short description of data set [14]: Toxicity in rat assessed as survival rate at 50 mg/kg. Type of data set: organism-based. The note with it: in vivo.
The test system of data set [15] is Rattus norvegicus. Description: Antiinflammatory activity in rat assessed as inhibition of yeast-induced foot edema at 60 mg/kg. Type of data set: functional.
In data set [16] the test system is Human immunodeficiency virus. Description: Antiviral activity against HIV infected in human MT4 cells. The note with it: Human immunodeficiency virus 1, MT4. Type of data set: functional, organism-based.
For a further data set, the system named is T47D. Description: Cytotoxicity against human T47D cells. The class given is functional, cell-based.
In the next data set the test system is MCF7. Description: Cytotoxicity against human MCF7 cells incubated for 72 hrs by WST1 dye based assay. The class given is functional, cell-based. The note with it: MCF7, 72 h.
The subject of a further data set is C32. Description: Cytotoxicity against human C32 cells incubated for 72 hrs by WST1 dye based assay. To be noted: C32, 72 h. The class given is functional, cell-based. For orientation: Tetrazolium assays rely on reduction of a dye to a coloured formazan, in cell work by metabolically active cells.
The test system of another data set is SNB-19. The experiment in a line: Cytotoxicity against human SNB19 cells incubated for 72 hrs by WST1 dye based assay. Type of data set: functional, cell-based. The note with it: SNB-19, 72 h.
In the next data set the test system is HFF-1. Description: Cytotoxicity against human HFF1 cells incubated for 72 hrs by WST1 dye based assay. To be noted: HFF-1, 72 h. Type of data set: cell-based.
A short description of data set [17]: Antioxidant activity assessed as H2O2 scavenging activity. Type of data set: functional. The note with it: dose or concentration not given here.
For data set [18], the species on record is Rattus norvegicus. Description: Antioxidant activity in albino rat assessed as inhibition of catalase induced H2O2 production. Type of data set: functional.
The subject of data set [19] is Mus musculus. Description: Anti-inflammatory activity in mouse IL-1-induced paw inflammation model assessed as inhibition of neutrophil infiltration at 10 mg/kg, po. Type of data set: functional. The note with it: Mus musculus, po.
Data set [20] in a line: Oral bioavailability in rat at 3 mg/kg. The class given is ADME, organism-based. To be noted: in vivo.
The test system of data set [21] is Staphylococcus aureus. Description: Antimicrobial activity against Staphylococcus aureus assessed as reduction in bacterial growth at 100 ppm relative to control. Type of data set: functional.
For the next data set, the system named is Candida albicans. The experiment in a line: Antimicrobial activity against Candida albicans assessed as reduction in […] growth at 100 ppm relative to control. The class given is functional.
Data set [22] deals with Trichophyton mentagrophytes. The experiment in a line: Antimicrobial activity against Trichophyton mentagrophytes assessed as reduction in microbial growth at 100 ppm relative to control. The class given is functional.
Another data set relates to Aspergillus terreus. Description: Antimicrobial activity against Aspergillus terreus assessed as reduction in microbial growth at 100 ppm relative to control. The class given is functional.
The next data set concerns Aureobasidium pullulans. The experiment in a line: Antimicrobial activity against Pullularia pullulans assessed as reduction in microbial growth at 100 ppm relative to control. Type of data set: functional.
For a further data set, the system named is Bacillus subtilis. The experiment in a line: Antibacterial activity against Bacillus subtilis. Type of data set: functional. The note with it: Bacillus subtilis.
Data set [23] concerns Staphylococcus aureus. The experiment in a line: Antibacterial activity against Staphylococcus aureus. Type of data set: functional. The note with it: Staphylococcus aureus; read-out: MIC.

The structures appear in SMILES notation. Converted amounts (≈) assume the structure as drawn. Where only a bound is given, the exact number is not on record here.

The MIC is the lowest concentration that inhibits growth of the organism. As to `O=C(O)c1cn(C2CC2)c2c3c(c(F)cc2c1=O)Sc1cc(Cl)ccc1N3`, the MIC against Staphylococcus aureus [1] was at least 100 µg/mL.
For `Oc1ncnc2c1N=c1c(c3c(c4ccccc14)=Nc1ccccc1S3)O2`, the MIC with Escherichia coli is 87.1 to 97.1 µg/mL (≈ 235 to 262 µM); in the data set on Bacillus cereus, 66.1 µg/mL (≈ 178 µM); against Aspergillus niger, 79.4 µg/mL (≈ 214 µM).
By IC50 is commonly meant the point on the concentration scale where inhibition reaches its midpoint. What is called inhibition in vivo is the relative decrease from the control value, in per cent. In data set [2], `Oc1ccc2c(c1)Sc1nccnc1N2` displayed an IC50 of 0.05 to 1 µg/mL (≈ 0.23 to 4.6 µM). In addition, in the data set with Rattus norvegicus [3], the inhibition in vivo at 3 mg/kg came out at 43%. Moreover, the inhibition in vivo at 5 mg/kg in the data set with Rattus norvegicus [4] is 47%.
For `O=C(O)c1cn(C2CC2)c2c3c(c(F)cc2c1=O)Sc1ccccc1N3`, the figures for the minimum inhibitory concentration (MIC) with Escherichia coli, in the data set on Bacillus cereus and against Salmonella typhimurium were 0.75 µg/mL (≈ 2.04 µM), 3 µg/mL (≈ 8.14 µM) and 6 µg/mL (≈ 16.3 µM), respectively.
In general, inhibition refers to the share of the control response that was lost under treatment. `COc1ccc2c(c1)c1c(c3nc4ccccc4c(=O)n32)Sc2cccc(OC)c2N1`: the inhibition in data set [5] lay within 45.6 to 47.3%. Further, the Activity was 6.8 nM in the data set filed under Mus musculus [6] and 4.5 to 4.6 nM in the data set filed under Mus musculus [7].
Take `CN(C)S(=O)(=O)NC1CCN(Cc2ccc3c(c2)Nc2nccnc2S3)CC1`: the inhibition in vivo at 10 mg/kg with Mus musculus [8] was 83.4 to 89.7%. Moreover, the IC50 in the data set on HUVEC [9] is 0.36 µM; with HUVEC [10], 0.55 µM; in data set [11], 0.27 to 1.4 µM; in data set [12] it was 4.5 µM.
`Cn1c(=O)nc2sc3ccccc3nc-2c1=O` registered an IC50 in [13] of 1.4 µM. Further, the survival in data set [14] was 69%. Further, the inhibition in vivo at 60 mg/kg with Rattus norvegicus [15] stood at 69%.
Compound `CCOCn1c(=O)[nH]c2c(c1=O)Nc1ccc(Cl)cc1S2` came in with an IC50 in [16] of 4.3 µM.
For `CN(C)CCCN1c2ccccc2Sc2cccnc21` [PROTHIPENDYL], the IC50 in the data set on T47D is 32.3 µg/mL (≈ 113 µM); in the data set with MCF7, at least 23 µg/mL; in the data set on C32 it was at least 23 µg/mL; in the data set with SNB-19, at least 23 µg/mL; in the data set with HFF-1 it was at least 23 µg/mL.
In the case of `COc1ccc2c(c1)Sc1c(F)cc3c(=O)c(C(=O)O)cn(C4CC4)c3c1N2`, the MIC against Staphylococcus aureus [1] is 25 µg/mL (≈ 62.7 µM); in the data set on Salmonella typhimurium, 6 µg/mL (≈ 15.1 µM).
As to `O=C1C(Cl)=C2Sc3cccnc3NC2c2ccccc21` (stereo not given), the inhibition in data set [17] was below 100%. Moreover, the “inhibition (INH)” value in the data set listed under Rattus norvegicus [18] is on record as 77.9%.
As usually defined, the bioavailability is dose-corrected exposure relative to a reference, in per cent. Higher therefore signals much systemic uptake. As for `O=C(O)CC1C2CCCC1CN(Cc1ccc3c(c1)Nc1nccnc1S3)C2` (stereo in doubt; 64c), the IC50 came out at 3 µM in data set [11] and 2.5 µM in data set [12]. Also, in the data set on Mus musculus [19], the inhibition in vivo at 10 mg/kg came out at 91.5%. The bioavailability in data set [20] worked out at 98.5%.
`CN(C)CCCN1c2ccccc2Sc2nc(Cl)c(Cl)nc21`: the inhibition at 100 ppm (in the data set on Staphylococcus aureus [21]; in the data set with Candida albicans; in data set [22]; with Aspergillus terreus; with Aureobasidium pullulans) was 100% in each case.
As for `O=C1O[C@H]([C@@H](O)CO)C(O)=C1O` [ASCORBIC ACID], the “inhibition (INH)” value in the data set listed under Rattus norvegicus [18] is 71.9%.
As for `CCSc1ncc2c(n1)N=c1c(c3c(c4ccccc14)=Nc1nc(SCC)nc(O)c1S3)S2`, the MIC against Bacillus subtilis was 63.3 µg/mL (≈ 124 µM); in the data set on Staphylococcus aureus [23], 39.8 µg/mL (≈ 78.2 µM); against Aspergillus niger, 60.3 µg/mL (≈ 119 µM). In addition, in the data set on Bacillus cereus, 50.5 µg/mL (≈ 99.3 µM) corresponded to half-maximal inhibition (IC50).
On to `C=CCN1c2cccnc2Sc2cccnc21`, for which, in the data set on SNB-19, the IC50 turned out to be 18.9 µg/mL (≈ 78.3 µM).
In the case of `CCN(CC)CCN1c2cccnc2Sc2cccnc21`, the IC50 with C32 is 6.6 µg/mL (≈ 22 µM); in the data set on HFF-1, at least 50 µg/mL.
Consider `O=C1C(c2ccc(Br)cc2)=C2Sc3cccnc3NC2c2ccccc21` (stereo not given), for which the inhibition in [17] was below 100%.
On to `COc1ccc2c(c1)[S+]([O-])c1nccnc1N2C` (stereo not given), for which, in the data set on Rattus norvegicus [3], the inhibition in vivo at 3 mg/kg amounted to 12.5%.
